We go through one compound from patent publication US10124008B2, “Use of inhibitors of acid sphingomyelinase to treat acquired and inherited retinal degenerations” (Wisconsin Alumni Research Foundation, priority 2014, dated 2018).

One assay relates to primary RPE monolayers. The assay can be described thus: Reactive oxygen species assay (CELLROX) after 10% NHS. In kind it is cell-based, porcine. Particulars: RPE with A2E, short treatment with desipramine. The method, then:
Reactive oxygen species (ROS) generation was measured using […] Deep Red (Molecular Probes, #10422) according to manufacturer's recommendation. After 10% NHS treatment, medium containing NHS was removed and cells were rinsed with HBSS before incubation in 5 μM […] reagent at 37° C. for 30 min. Cells were rinsed 3 times with PBS and fluorescence was read with microplate reader at Ex/Em of 640/665. For normalization purposes, cells were fixed, stained with DAPI, and fluorescence was read at Ex/Em: 360/460.

In assay [1] the test system is acid sphingomyelinase (ASMase). The assay can be described thus: ASMase activity in primary RPE (sphingomyelinase fluorimetric assay kit). It is filed as cell-based, porcine. Particulars: desipramine 10 μM for 3 hours. The method, then: Cells were harvested by trypsinization and cell pellets were washed with PBS to remove residual medium. Cells were lysed in HNTG lysis buffer (50 mM Hepes, pH 7.4, 150 mM NaCl, 10% glycerol, 1.5 mM MgCl2, 1% triton X-100) supplemented with protease inhibitors. Total protein was measured using the DC protein assay kit (BioRad). Cellular cholesterol was quantified using the Amplex Red cholesterol assay kit (INVITROGEN) as detailed previously (Lakkaraju et al., 2007). Single eyecups from wild-type and ABCA4^−/− mice were homogenized in 50 μl of lysis buffer and processed as above. For measuring acid sphingomyelinase activity, cells were lysed in acidic pH and assays were performed using the sphingomyelinase fluorimetric assay kit from Cayman Chemicals according to the manufacturer's protocol.

Assay [2] deals with acetylated tubulin in polarized primary RPE. Briefly: Immunofluorescence staining of acetylated and tyrosinated tubulin. In kind it is cell-based, porcine. Particulars: inhibitors 10 μM for 3 h, 48 h after A2E treatment. The procedure:
ALEXAFLUOR secondary antibodies were used at 1:500 and rhodamine-phalloidin (Cytoskeleton, PHDR1) at 1:200. Filters were mounted under coverslips on glass slides under […] (Vector labs), sealed and visualized with Andor Revolution XD spinning disk confocal microscope using a 60×1.4 NA oil objective with identical exposures and gains for each antibody. Acetylated tubulin-labeled stable microtubules (≥5 μm in length) after nocodazole treatment were analyzed manually in the Surpass mode of Imaris (Bitplane).
(§1) We performed two initial screens: first, we compared the ability of functional inhibitors (fluoxetine and amitriptyline) with that of the lone structural ASMase inhibitor zoledronic acid in decreasing acetylated tubulin. Here, polarized RPE monolayers with or without A2E were treated with one of the three inhibitors (10 μM, 3 h). Desipramine as a positive control. At the end of the incubation period, cells were fixed and stained for acetylated tubulin, imaged and the amount of acetylated tubulin in the cells was quantified. Second, we evaluated three additional drugs (sertraline, astemizole and fexofenadine) for their abilities to increase autophagy in the RPE. Cells with or without bisretinoids were transfected with mRFP-GFP-LC3, starved to induce autophagy, treated with drugs and imaged as in FIG. 9D.

In the next assay the test system is MHC-II in RPE. Briefly: Quantification of MHC-II staining. In kind it is cell-based. Particulars: RPE with A2E.
A further assay concerns ceramide in primary RPE. Briefly: Immunofluorescence staining for ceramide. It is filed as cell-based, porcine. Particulars: desipramine treatment. The procedure: ALEXAFLUOR secondary antibodies were used at 1:500 and rhodamine-phalloidin (Cytoskeleton, PHDR1) at 1:200. Filters were mounted under coverslips on glass slides under VECTASHIELD (Vector labs), sealed and visualized with Andor Revolution XD spinning disk confocal microscope using a 60×1.4 NA oil objective with identical exposures and gains for each antibody. Acetylated tubulin-labeled stable microtubules (≥5 μm in length) after nocodazole treatment were analyzed manually in the Surpass mode of Imaris (Bitplane).

For the next assay, the system named is primary RPE cells. The assay can be described thus: Live imaging of tandem fluorescent mRFP-GFP-LC3 (tfLC3), autophagic flux. In kind it is cell-based, porcine. Particulars: RPE with A2E; 3 h drug incubation (TO901317 1 μM 20 h). The procedure:
RPE cells were transfected with EGFP-LC3 or tandem fluorescent mRFP-GFP-LC3 (Addgene) using the AMAXA NUCLEOFECTOR II (Lonza). Approximately 1.5 million cells and 5 μg of plasmid DNA were used for each transfection. Cells were plated either on serum-coated glass-bottom dishes (Mattek) or […] filters at confluence.
Andor IQ2 software was used for image acquisition and Imaris x64 (Bitplane) for image analysis. […] Trafficking data was collected from three separate transfections for a total of at least 12-30 movies captured for treatment. During image acquisition care was taken to maintain the same laser power, exposure and electron-multiplying gain settings. […] After background subtraction (using the background subtraction algorithm and identical automatic threshold for all images) and smoothing (Gaussian algorithm with identical threshold settings for all images), Spots and Tracks algorithms were used to identify vesicles and follow them through time and cell-space to obtain total track length and track displacement.
We used tandem fluorescent mRFP-GFP-LC3 (tfLC3) to monitor autophagy in primary RPE cells in real time.
as §1

The test system of assay [3] is CD59 on polarized primary RPE. Briefly: Surface CD59 staining. In kind it is cell-based, porcine. The following applies: RPE with A2E; short treatment with desipramine. The method, then:
AlexaFluor secondary antibodies were used at 1:500. Filters were mounted under coverslips on glass slides under VECTASHIELD (Vector labs), sealed and visualized with Andor Revolution XD spinning disk confocal microscope using 60×1.4 NA or 100×1.49 NA oil objectives with identical exposures and gains for each antibody. Quantification of surface CD59 staining was performed using Imaris.

Entries after “also recorded” stand apart in the source; their conditions may differ.

Consider `CNCCCN1c2ccccc2CCc2ccccc21` [desipramine], for which the entries for the “ROS levels after complement attack” value in the assay with primary RPE monolayers and in the assay on primary RPE monolayers (listed as Desipramine) were “decreased ROS levels after complement attack” and “prevented mitochondrial oxidative damage after complement attack”, respectively. Also, the ASMase activity entry in assay [1] was “decreased ASMase activity and ceramide levels”. Besides, in assay [2], the “acetylated tubulin in RPE with A2E” value is recorded as “decreased acetylated tubulin in cells with A2E”. Further, the MHC-II protein levels result with MHC-II in RPE is on record as “decreased MHC-II protein levels”. The ceramide levels entry in the assay with ceramide in primary RPE was “decreased ASMase activity and ceramide levels”. Moreover, the “autophagic flux / autophagosome-lysosome fusion (tfLC3 EGFP:mRFP)” value in the assay on primary RPE cells was “corrected defects in autophagosome-lysosome fusion; also recorded: completely reversed the autophagic block induced by A2E”. In assay [3], the “surface CD59 levels” value was “increased surface CD59 levels”.
